Test results published in publication PMC8769072, “Proteome‐scale mapping of binding sites in the unstructured regions of the human proteome” (Molecular Systems Biology, 2022).

Tested on: immobilized GST-tagged bait protein domains
Experiment: ProP-PD phage selections (HD2 P8, sublibraries, HD2 P3, HD1 P8) with NGS and confidence level
Assay type: binding, human
Details: for HD confidence / HD mean counts / HD count proportions: HD1 P8 library; for HD mean counts: mean NGS counts over replicate selections; for HD count proportions: mean proportion of NGS counts
[1] = HD2 library, bait PDCD6IP_Alix-V-domain__Q8WUM4_360_702, benchmark motif instance, in_library_check FALSE, in_library_coverage 0
[2] = bait MAP1LC3A_ATG8 (Q9H492 2-121), HD2 library, benchmark motif instance recovered in the ProP-PD selection (TRUE/FALSE)
[3] = bait MAP1LC3B_ATG8 (Q9GZQ8 2-119), HD2 library, benchmark motif instance recovered in the ProP-PD selection (TRUE/FALSE)
[4] = bait KPNA4_Arm (O00629 68-487), HD2 library, benchmark motif instance recovered in the ProP-PD selection (TRUE/FALSE)
[5] = bait SIN3A_PAH__Q96ST3_295_383, HD2 library, whether the validated benchmark motif instance was recovered in the ProP-PD selection (TRUE/FALSE)
[6] = HD2 library, bait SUMO1_SUMO__P63165_1_101, known motif instance of the benchmarking set found (TRUE) or not found (FALSE) among selected peptides
[7] = library HD2, bait EPS15_EH__P42566_121_215, whether the validated benchmark motif instance was recovered in the ProP-PD selection (TRUE/FALSE)
[8] = bait CALM1_EF-hand__P0DP23_2_149, library HD2, benchmarking set of validated motif instances, TRUE = motif instance recovered in the ProP-PD selection
[9] = bait OXSR1___O95747_434_527, HD2 library, whether the validated benchmark motif instance was recovered in the ProP-PD selection (TRUE/FALSE)
[10] = bait AP2B1_adaptin__P63010_700_937, confidence level (4 = High, 2-3 = Medium, 1 = Low)
[11] = bait AP2B1_adaptin__P63010_700_937
[12] = library HD2, bait VASP_EVH1__P50552_1_114, validated benchmark motif instance, in_library_check TRUE, TRUE/FALSE = instance recovered in ProP-PD selection
[13] = library HD2, bait USP7_MATH-TRAF__Q93009_53_206, validated benchmark motif instance, in_library_check TRUE, TRUE/FALSE = instance recovered in ProP-PD selection
[14] = library HD2, bait WDR5_WD_1234567_P61964_21_334, validated benchmark motif instance, in_library_check TRUE, TRUE/FALSE = instance recovered in ProP-PD selection
[15] = library HD2, bait KLC1_TPR__Q07866_203_497, whether the validated benchmark motif instance was recovered in the ProP-PD selection (TRUE/FALSE)
[16] = HD2 library, bait TNKS_TANK-peptide-bind__O95271_174_649, known motif instance of the benchmarking set found (TRUE) or not found (FALSE) among selected peptides
[17] = bait SUMO1_SUMO__P63165_1_101, HD2 library, confidence level (1-4) of best matching selected peptide
[18] = bait SUMO1_SUMO__P63165_1_101, HD2 library, specificity score of best matching selected peptide
[19] = bait SUMO1_SUMO__P63165_1_101, HD2 library, whether the validated benchmark motif instance was recovered in the ProP-PD selection (TRUE/FALSE)
[20] = HD2 library, bait CALM1_EF-hand__P0DP23_2_149, benchmark motif instance, in_library_check FALSE, in_library_coverage 0

-----MSLYPSLEDLKVDK [SDCBP 3-7]
motif_found [1]: FALSE

--MELNSLLILLEAAEYLERRDREA [MXD4 6-16]
motif_found (HD2 library, bait SIN3A_PAH__Q96ST3_295_383, benchmark motif instance, in_library_check FALSE, in_library_coverage 0): FALSE

-MDAATLTYDTLRFAEFED
motif_found [2]: FALSE | motif_found [3]: FALSE

-MNSPGGRGKKKGSGGASNPV
motif_found [4]: FALSE

AAAAYVDHFAAECLVSMSSRAVVH
motif_found [5]: FALSE

AAALPQPEVILLDSDLDEPIDL
motif_found [6]: FALSE

AAAVRMNIQMLLEAADYLERREREA
motif_found [5]: FALSE

AAGPSVASSTNPFQTN
best_specificity (library HD2, bait EPS15_EH__P42566_121_215, best matching peptide): 1 | best_confidence (library HD2, bait EPS15_EH__P42566_121_215, confidence level of best matching peptide (4 High, 2-3 Medium, 1 Low)): 3 | motif_found [7]: TRUE

AAQATGTTNPFLL------
motif_found [7]: FALSE

AASVNANFAHFDNFPK
HD2_endomembrane confidence (bait AP2B1_adaptin__P63010_700_937, HD2 P8 endomembrane sublibrary, confidence level (4 = High, 2-3 = Medium, 1 = Low)): 4

ADTPPPAYLPPEDPMT
best_confidence (library HD2, bait YAP1_WW_1_P46937_169_207, confidence level of best matching selected peptide (4 High, 2-3 Medium, 1 Low)): 2 | best_specificity (library HD2, bait YAP1_WW_1_P46937_169_207, specificity score of best matching selected peptide): 1 | motif_found (library HD2, bait YAP1_WW_1_P46937_169_207, validated benchmark motif instance, in_library_check TRUE, TRUE/FALSE = instance recovered in ProP-PD selection): TRUE

AEERVVVISSSE
motif_found [6]: FALSE

AESSQAVMSLPKLQQV
HD2 confidence (bait ANKRA2_Ank__Q9H9E1_142_313, library HD2 P8): 4

AFIIWLARRLKKGKK [SELL]
motif_found [8]: FALSE

AGVFKMGRFQVSVAADGAQ
motif_found [9]: FALSE

AIPWAAFPAVSGVHLS
HD confidence [10]: 4 | HD mean counts [11]: 2.25 | HD count proportions [11]: 0.0009118 | HD2 confidence (bait AP2B1_adaptin__P63010_700_937, HD2 P8 library, confidence level (4 = High, 2-3 = Medium, 1 = Low)): 3

AKNGAASKRAFKQSPPAVPALGAGVKKRRHGDEDTYY
motif_found [4]: FALSE

AMICYRKKRKGKLTLEDQAT
motif_found [4]: FALSE

APLEEEIFPSPPPPPEEEG
motif_found [12]: FALSE

APPVSGTFKFNTDAAEFIPQEKKNSGL
motif_found (bait PABP-B_PABP__P11940_544_623, HD2 library, whether the validated benchmark motif instance was recovered in the ProP-PD selection (TRUE/FALSE)): FALSE

AQCSTSDSACRISPGQ
best_confidence (library HD2, bait USP7_MATH-TRAF__Q93009_53_206, confidence level of best matching selected peptide (4 High, 2-3 Medium, 1 Low)): 2 | best_specificity (library HD2, bait USP7_MATH-TRAF__Q93009_53_206, specificity score of best matching selected peptide): 1 | motif_found [13]: TRUE

AQSMVSGSHCTPPPPY
motif_found (bait NEDD4_WW_4 (P46934 890-928), HD2 library, benchmark motif instance recovered in the ProP-PD selection (TRUE/FALSE)): TRUE | best_confidence (bait NEDD4_WW_4 (P46934 890-928), HD2 library, confidence level (1-4) of best matching peptide): 4 | best_specificity (bait NEDD4_WW_4 (P46934 890-928), HD2 library, specificity score of best matching peptide): 0.99

AQSPLPSTNPFQPNGLAPG
motif_found [7]: FALSE

ARKEVIRNKIRAIGKMARVFSVLR,VIRNKIRAIGKMARVFS,KEVIRNKIRAIGKMARVFS [PPP3CA]
motif_found [8]: FALSE

ARTKQ
motif_found [14]: FALSE

ARTKQTA
motif_found [14]: FALSE

ASDDSNGLEWENDFVSAEMDDNGN
motif_found [15]: FALSE

ASFTEDAPRPPVPGEEGELVST
motif_found [16]: FALSE

ASSATRELDELMASLSDFKIQGL
motif_found (bait PTK2_Focal-AT__Q05397_891_1050, HD2 library, whether the validated benchmark motif instance was recovered in the ProP-PD selection (TRUE/FALSE)): FALSE

ASTS
motif_found [13]: FALSE

ATGSDSSGVIDLTMDDEESG
motif_found [6]: FALSE

ATLDALLAALRRIQRAD
motif_found (library HD2, bait CALM1_EF-hand__P0DP23_2_149, motif instance NOT in library (in_library_check FALSE, in_library_coverage 0)): FALSE

ATQCDPEEIIVLSDSD-------
motif_found [6]: FALSE

AVPSVPSTDWEDGDLTDTVSGP
motif_found [15]: FALSE

CNSDRVLKRSAEGSNPPKPLKKLRFDIEGSDE
motif_found [4]: FALSE

CRRPLSRTRNPADGIPAPESSS
motif_found [16]: FALSE

DAPIILSDSEEEEMIILEPDKNPKK
motif_found [6]: FALSE

DAQAGKEPGGSRAHSSHLK
motif_found [13]: FALSE

DATLCSGRFTISTLLS
best_confidence (bait OXSR1___O95747_434_527, HD2 library, confidence level (1-4) of best matching selected peptide): 2 | best_specificity (bait OXSR1___O95747_434_527, HD2 library, specificity score of best matching selected peptide): 1 | motif_found [9]: TRUE

DDDSSKDSGFTIVSPL
motif_found [2]: TRUE | best_confidence (bait MAP1LC3A_ATG8 (Q9H492 2-121), HD2 library, confidence level (1-4) of best matching peptide): 2 | best_specificity (bait MAP1LC3A_ATG8 (Q9H492 2-121), HD2 library, specificity score of best matching peptide): 1

DDDVLIVYELTPTAEQ
best_confidence [17]: 2 | best_specificity [18]: 1 | motif_found [19]: TRUE

DDGLDEAFSRLAQSRT,WELDDGLDEAFSRLAQSRTNPQVLD [LDLRAP1]
motif_found (bait AP2B1_adaptin__P63010_700_937, library HD2, benchmarking set of validated motif instances, TRUE = motif instance recovered in the ProP-PD selection): TRUE

DDIMPAVKTVIRSIRILKFLVAKRKF [KCNQ4 524-549]
motif_found [20]: FALSE

DDPDAAELNPFGDPDSEEP
motif_found [7]: FALSE

DEIVDLTCESLEPVVV
best_confidence [17]: 2 | best_specificity [18]: 1 | motif_found [19]: TRUE

DFPPPPPDLEQLRLTD
best_confidence (library HD2, bait VASP_EVH1__P50552_1_114, confidence level of best matching selected peptide (4 High, 2-3 Medium, 1 Low)): 2 | best_specificity (library HD2, bait VASP_EVH1__P50552_1_114, specificity score of best matching selected peptide): 1 | motif_found [12]: TRUE

DGGTTFEHLWSSLEPD
motif_found (bait MDM2_p53-binding-domain (Q00987 17-125), HD2 library, benchmark motif instance recovered in the ProP-PD selection (TRUE/FALSE)): FALSE

DGNLYPRLYPELSQYMGLS [SDCBP 49-53]
motif_found [1]: FALSE

DGTISVPETWAKFSND
HD confidence [10]: 4 | HD mean counts [11]: 1.5 | HD count proportions [11]: 0.0006297

DIDQMFSTLLGEMDLLTQSLGVDT
motif_found (HD2 library, bait TLN1_PTB__Q9Y490_309_401, known motif instance of the benchmarking set found (TRUE) or not found (FALSE) among selected peptides): FALSE

DKAITDRVILLQKVIRGFKDRSNFLKLKNA [MYO7A 748-763]
motif_found [20]: FALSE

DKEDDQEHPSEKQPSGAESGTLARASLALPTSSLSRTASQSSSHRGWEILRQNTLGHLNLGLNLSEGDGEE [TRPV5]
motif_found [8]: FALSE

DLRKIPDSNPFDATAGYRS
motif_found [7]: FALSE

DNEKECIIVWEKK
motif_found [6]: FALSE

DPSMDKAAVKIQAAFKGYKVRKEMKQQEGPM [OBSCN]
motif_found [8]: FALSE

DRHRIEEKRKRTYETFKSIMK [RELA 301-307]
motif_found (HD2 library, bait KPNA4_Arm__O00629_68_487, benchmark motif instance, in_library_check FALSE, in_library_coverage 0): FALSE

DSFYNNSYNPFKEVQTPQY
motif_found [7]: FALSE

DSSCDTDDFVMVPAQFPGD
motif_found [2]: FALSE | motif_found [3]: FALSE

DSSKDSGFTIVSPLDI
motif_found [3]: TRUE | best_confidence (bait MAP1LC3B_ATG8 (Q9GZQ8 2-119), HD2 library, confidence level (1-4) of best matching peptide): 4 | best_specificity (bait MAP1LC3B_ATG8 (Q9GZQ8 2-119), HD2 library, specificity score of best matching peptide): 1

DTGKENEMDWDDSALTITVNPMET
motif_found [15]: FALSE

DTHAKWEQATKLILNY
confidence (library HD, bait CALM1_EF-hand__P0DP23_2_149, ProP-PD peptides with disease-related mutations): 3

DTLWRPMPKLAPLGLKVAN
motif_found (library HD2, bait ZMYND11_coiled-coil-MYND__Q15326_480_602, validated benchmark motif instance, in_library_check TRUE, TRUE/FALSE = instance recovered in ProP-PD selection): FALSE
